Experimental data taken from US20220387544A1, “NOVEL THERAPEUTIC USE” (Artios Pharma Limited, priority 2019, published 2022).
“Also recorded” adds a separate entry of the source.

How the values were obtained:
Assay type in all cases: cell-based
[1] = tested on: parental and C20orf196 KO SUM149 tumouroids; experiment: Tumouroid assay, parental vs C20orf196 KO SUM149
Description: (§1) Cells were seeded into a hydrogel containing 10% rat tail collagen (OcellO) in 384-well high content imaging microplates at varying densities to compensate for differential growth characteristics (Table 2).
(§2) 24 hours after seeding, test compounds and olaparib (Selleckchem) were added in an eight-point dose range with a one in three serial dilution (maximum concentration 12 μM for all compounds, except 30 μM compound A for REV7 KO cell experiments). Dimethyl sulfoxide (DMSO) and 1 μM staurosporine (Med Chem Express) treatments were included as negative and positive controls, respectively. All treatments were carried out in quadruplicate.
After seven or fourteen days of treatment for 20orf196 KO and REV7 KO experiments respectively, cells were fixed with 5× Fix & Stain solution (OcellO) for 16 hours at 4° C. to stain both the nuclei using Hoechst 33258 and the actin cytoskeleton using Rhodamine-Phalloidin. Cells were washed four times with phosphate-buffered saline (PBS), and plates were imaged and analysed using OcellO's three-dimensional image analysis software (Ominer). For each well, two channels of 16-bit image stacks were collected using an automated microscope system: Molecular Devices ImageXpress Micro XLS, equipped with a 4× magnification/0.2NA PlanApo objective. For each image slice (n=47), pixel size was 0.324 μm and step size in z-direction was 50 μm.
Parental or C20orf196 KO SUM149 cells were seeded into a collagen-containing hydrogel in 384-well plates and incubated overnight. The resulting tumouroids were treated with a serial dilution of Polθ inhibitor or olaparib for seven days, fixed, and stained to visualise DNA and F-actin. Plates were imaged, and tumouroid size was measured using OcellO's three-dimensional image analysis software.
(§3) Parental or C20orf196 KO SUM149 cells were seeded into a collagen-containing hydrogel in 384-well plates and incubated overnight. The resulting tumouroids were treated with a serial dilution of Polθ inhibitor or olaparib for seven days, fixed, and stained to visualise DNA and F-actin. Plates were imaged, and the number of nuclei per tumouroid was counted using OcellO's three-dimensional image analysis software.
as §3, with “with” for “with a serial dilution of”, “inhibitor, olaparib” for “inhibitor”, “control compound (at the concentrations indicated)” for “olaparib”, “fraction” for “number”, “without an associated actin cytoskeleton” for “per tumouroid”, “calculated” for “counted”

[2] = tested on: parental and REV7 KO SUM149 tumouroids; experiment: Tumouroid assay, parental vs REV7 KO SUM149; conditions: fourteen days treatment
Description: as §1, §2
After seven or fourteen days of treatment for 20orf196 KO and REV7 KO experiments respectively, cells were fixed with 5× Fix & Stain solution (OcellO) for 16 hours at 4° C. to stain both the nuclei using Hoechst 33258 and the actin cytoskeleton using Rhodamine-Phalloidin. Cells were washed four times with phosphate-buffered saline (PBS), and plates were imaged and analysed using OcellO's three-dimensional image analysis software (Ominer). […]
Parental or REV7 KO SUM149 cells were seeded into a collagen-containing hydrogel in 384-well plates and incubated overnight. […] Plates were imaged, and the fraction of nuclei without an associated actin cytoskeleton was calculated using OcellO's three-dimensional image analysis software.

[3] = tested on: parental and REV7 KO 22Rv1 cells; experiment: Colony formation assay, 22Rv1; conditions: REV7 KO vs REV7 wild type parental 22Rv1 cells, 2 weeks
Description: (§4) 1 mL of cells were seeded per well in a 24-well plate in triplicate and incubated overnight at 37° C. Cells were treated with a seven-point dose response curve with a one-in-three serial dilution of compound for the timepoints listed in Table 5. For MDA-MB-436 cells media was replenished every five days.
(§5) Cells were fixed with 70% ethanol for 20 minutes at room temperature with shaking. Cells were then stained with 0.04% Crystal Violet (Sigma Aldrich) for 20 minutes at room temperature with shaking. Cells were washed 6 times with water and air-dried overnight.
(§6) Plates were imaged using a Gelcount (Oxford Optronix), and colonies were counted using parameters optimized for each cell line. 22Rv1 viability curves were generated from the colony counts alone. MDA-MB-436 and HCC1935 viability curves were generated from solubilized colonies. Colonies were solubilized using 10% acetic acid (VWR) for 30 minutes, absorbance at 595 nm was read using the Clariostar plate reader (BMG Labtech), and blank correction was applied. Relative Survival was calculated by normalization of compound treated wells to DMSO treated wells.
The effect of a DNA polymerase theta (Polθ) inhibitor (Compound A) or the PARP inhibitor olaparib on the survival of parental (REV7 wild type) or REV7 deleted (REV7 KO) 22Rv1 cells was investigated in colony formation assays (CFA—see protocol above). […]

[4] = tested on: SUM149 Parental and C20orf196 KO SUM149 cells; experiment: Clonogenic survival assay (ICR), SUM149 C20ORF196 KO clones
Description: (§7) Clonogenic survival assays were performed as previously described (Edwards et al Nature (2008) 451, 1111-1115; Farmer et al Nature (2005) 434, 917-921). For measurement of sensitivity to Compound A inhibitor, exponentially growing cells were seeded in six-well plates at a concentration of 1000-2000 cells per well. For Compound A, cells were continuously exposed to the drug with media and drug replaced every 72 h. After 14 days, cells were fixed and stained with sulphorhodamine-B (Sigma) and colonies were counted. SFs were calculated and drug sensitivity curves plotted as previously described (Farmer et al Nature (2005) 434, 917-921).
(§8) Parental or C20orf196 KO SUM149 cells were seeded into 6 well plates and incubated overnight. The cells were then exposed to a serial dilution of Polθ inhibitor or olaparib for 14 days, fixed, and stained with sulphorhodamine B. The colonies in each well were counted and normalised survival data plotted to generate a dose-response curve, as described before.

[5] = tested on: Parental and REV7 KO SUM149 cells; experiment: Clonogenic survival assay (ICR), SUM149 REV7 KO clones; conditions: REV7 KO clones vs parental SUM149, 14 days
Description: as §7
as §8, with “REV7” for “C20orf196”, “treated with” for “exposed to”, “curve.” for “curve, as described before.”

[6] = tested on: parental and SHLD2 KO HCC1395 cells; experiment: Colony formation assay, HCC1395; conditions: SHLD2 KO vs parental HCC1395 cells, colony solubilisation protocol
Description: as §4, §5
as §6, with “22Rv1 viability curves were generated from the colony counts alone. MDA-MB-436 and HCC1935 viability curves were generated from solubilized colonies.” left out
(§9) The effect of a DNA polymerase theta (Pole) inhibitor (Compound A) and the PARP inhibitor olaparib on the survival of parental and SHLD2 deleted (SHLD2 KO) HCC1395 cells was investigated by colony formation assay. Briefly, each population was seeded at low density, incubated with different concentrations of the compound and the relative survival normalized to untreated cells was measured with the colony solubilisation protocol.

[7] = tested on: parental and SHLD2 KO MDA-MB-436 cells; experiment: Colony formation assay, MDA-MB-436; conditions: SHLD2 KO vs parental MDA-MB-436 cells, colony solubilization protocol
Description: as §4, §5
as §6, with “22Rv1 viability curves were generated from the colony counts alone. MDA-MB-436 and HCC1935 viability curves were generated from solubilized colonies.” left out
as §9, with “(Polθ)” for “(Pole)”, “MDA-MB-436” for “HCC1395”, “solubilization” for “solubilisation”

[8] = tested on: Shieldin-defective, PARPi-resistant SUM149 cells; experiment: Re-sensitisation to olaparib; conditions: deletion of C20orf196 or 53BP1 or expression of BRCA1 in SUM149; olaparib 1 μM 10 days
Description: For measurement of re-sensitisation to Olaparib, exponentially growing cells were exposed to Compound A for 48 hours. After, cells were seeded in 96-well plates at a concentration of 1000-2000 cells per well. 24 hours post-seeding, Olaparib treatment was initiated and cells were continuously exposed to the drug with media and drug replenished every 72 hours. After 10 days, cell viability was estimated using Cell-Titre Glo (Promega). SFs were calculated and drug sensitivity curves plotted as previously described (Farmer et al Nature (2005) 434, 917-921).
Briefly, parental SUM149 cells or derivatives with either BRCA1 restored or with genetic deletion of either C20orf196 or 53BP1 were treated with Compound A in a tissue culture flask for 48 hours. The cells were then washed before seeding at low density in 96 well plates. 24 hours post seeding, cells were incubated with either olaparib or DMSO for a further 10 days. The relative survival normalised to untreated cells was measured using Cell-Titre Glo.

[9] = tested on: DLD1 colon cancer cells; experiment: CRISPR-Cas9 KO synthetic lethality screen; conditions: compound at approximate EC20, 15 days, vs DMSO
Description: The CRISPR KO screen, sample preparation and data analysis were performed by Horizon Discovery using a CRISPR library against 1965 genes with 10 gRNA's per gene. DLD-1 colon cancer cells were grown in RPMI medium with 10% FBS, infected with the lentiviral library (each viral particle containing Cas9 and sgRNA), selected with puromycin for 2 weeks, and treated with compound B (EC17.1%) or DMSO for 15 days. Synthetic lethality scores were calculated by normalizing the sgRNA count from compound treated cells to DMSO treated control.
The synthetic lethal effect between Polθ inhibitor (Compound B) and knockout of any one of 1965 genes in DLD1 colon cancer cell line was assessed. A CRISPR KO screen was performed in DLD1 cells using compound B at an approximate EC20, using DMSO-exposed cells (the compound vehicle) as control. The quantity of cells containing each sgRNA was measured via next generation sequencing. (FIG. 5(a)) REV7 was in the Top 50 hits out of the […] genes screened, based on FDR score together with comparison to a validated synthetic lethal partner BRCA2. (b) Based on the log fold change, REV7 was in the top 25 hits. […] 7 out of 10 gRNA's were synthetic lethal with Polθ inhibition.

[10] = C20orf196 KO vs parental SUM149 tumouroids, seven days treatment
[11] = in C20orf196 KO cells when compared with olaparib

SMILES | cell death (fraction of dead cells) ([1]; C20orf196 KO vs parental SUM149 tumouroid cultures, seven days treatment) | sensitivity by reduction in number of nuclei per tumouroid [1, 10] | sensitivity by reduction in tumouroid size [1, 10] | cell death (fraction of dead cells) [2] | sensitivity by relative survival (colonies) [3] | sensitivity by reduction in number of colonies ([4]; C20orf196 KO clones vs parental SUM149, 14 days) | sensitivity of parental SUM149 cells ([4]; parental SUM149 (BRCA1 mutation), 14 days) | sensitivity by reduction in number of colonies [5] | sensitivity by relative survival [6] | sensitivity by relative survival [7] | resistance to olaparib [8] | cell death [1, 11] | reduction in the number of nuclei per tumoroid [1, 11] | reduction in tumoroid size [1, 11] | REV7 gRNA's synthetic lethal with Polθ inhibition, out of 10 [9] | position of REV7 among hits based on log fold change [9]
O=C(c1cc(Cc2n[nH]c(=O)c3ccccc23)ccc1F)N1CCN(C(=O)C2CC2)CC1 [olaparib, reference compound] | significantly less cell death | less sensitive | less sensitive | less cell death | still retain resistance | more resistant | hypersensitive | resistance; also recorded: more resistant | significantly more resistant | trend for increased resistance | induces resistance; also recorded: marked resistance |  |  |  |  | 
Cc1cccc(N(C)C(=O)[C@@H]2C[C@H](O)CN2c2nc(C)cc(C(F)(F)F)c2C#N)c1 [Compound B, (2S,4S)-1-(3-cyano-6-methyl-4-(trifluoromethyl)pyridin-2-yl)-4-hydroxy-N-methyl-N-(m-tolyl)pyrrolidine-2-carboxamide] |  |  |  |  |  |  |  |  |  |  |  | significantly more cell death | greater reduction in the number of nuclei per tumoroid | greater reduction in tumoroid size | 7 | ≤ 25
